Data as given in US20220340665A1, “INHIBITOR AGAINST EXPRESSION OF IMMUNE CHECKPOINT MOLECULE” (RENASCIENCE INC., priority 2019, published 2022).
“Also recorded” adds a separate entry of the source.

How the values were obtained:
[1] = tested on: mouse colorectal cancer cell line (MC38); test: PD-L1 expression level by flow cytometry in MC38 cells (Experimental Example 3); format: cell-based; details: inhibitor 50 μM with rPAI-1 40 nM, 2 days, listed as PAI-1 inhibitor
Description: Next, the PD-L1 expression level was determined by flow cytometry in the same manner as in Experimental Example 1.
Likewise, a mouse colorectal cancer cell line (MC38) and a mouse malignant melanoma cell line (B16F10) were also tested in the same manner, instead of the mouse leukemia cell line (32Dp210).

[2] = tested on: mouse leukemia cell line (32Dp210); test: PD-L1 mRNA expression by real-time PCR in 32Dp210 cells (Experimental Example 4); format: cell-based; details: inhibitor 50 μM with rPAI-1 40 nM or 100 nM, overnight, listed as PAI-1 inhibitor
Description: The culture supernatant of the cells overexpressing PAI-1 (32D PAI-1 OE) prepared in Experimental Example 1 (PAI-1 OE sup) was added to a mouse leukemia cell line (32Dp210). In addition, those obtained by adding the PAI-1 inhibitor to a concentration of 50 μM, together with rPAI-1 (40 nM or 100 nM), were also prepared. Then, culturing was performed on a 96-well plate at 37° C., 5% CO2, overnight. The cells were collected, RNA was extracted using ISOGEN2 (Nippon Gene Co., Ltd.), and 100 ng of RNA was subjected to a reverse transcription reaction using a PrimeScript RT-PCR kit (Takara Bio Inc.) to obtain cDNA. The PD-L1 gene expression level was monitored by real-time PCR using TaqMan Fast Advanced Master Mix (Thermo Fisher Scientific). PD-L1 (Mm00452054_m1, Thermo Fisher Scientific) was used as the primer. To standardize the RNA amount, the expression level of 18S rRNA (Hs99999901_s1, Thermo Fisher Scientific) was also measured simultaneously. The PD-L1 gene expression level was determined using a comparative Ct method, which was shown in the graph as a ratio relative to the control group.

[3] = tested on: mouse leukemia cell line (32Dp210); test: PD-L1 expression in leukemic cells of mice transplanted with 32Dp210 (Experimental Example 5); format: in vivo, mice (C3H/HEJ); details: peripheral blood, 10 mg/kg orally once daily, 7 days, vs vehicle, listed as PAI-1 inhibitor
Description: Specifically, 5×10^5 cells of a mouse leukemia cell line (32Dp210) were transplanted into mice (C3H/HEJ), and engraftment was confirmed one week later. Subsequently, the PAI-1 inhibitor was orally administered once daily at 10 mg/kg for a total of 7 days. On the next day of the final administration, the peripheral blood or the spleen was collected from the mice. The spleen was mechanically dispersed by grinding through nylon mesh. The peripheral blood and spleen cells were independently hemolyzed with an ammonium chloride solution and then stained with an anti-PD-L1 antibody (clone name: 10F.G92) labeled with Allophycocyanin (APC) to determine the PD-L1 expression level in the leukemic cells with a flow cytometer. As a comparative control experiment, instead of the PAI-1 inhibitor, only physiological saline (vehicle) was administered to the mice transplanted with the mouse leukemia cell line, and the PD-L1 expression level in the leukemic cells was determined with a flow cytometer in the same manner as described above.

[4] = tested on: M2 macrophages (CD11b+CD206+); test: PD-L1 expression in M2 macrophages of orally dosed mice (Experimental Example 7); format: in vivo, mice (C57BL6); details: peripheral blood; 10 mg/kg orally once daily, 7 days; vs vehicle
Description: Mice (C57BL6) were orally administered with the PAI-1 inhibitor once daily at 10 mg/kg for a total of 7 days. On the next day of the final administration, the peripheral blood or the spleen was collected from the mice. The spleen was mechanically dispersed through nylon mesh. The peripheral blood and spleen cells were independently hemolyzed with an ammonium chloride solution, and the PD-L1 expression level in M2 macrophages (CD11b^+CD206^+) was determined with a flow cytometer. As a comparative control experiment, the peripheral blood or the spleen was collected in the same manner from a mouse group to which only physiological saline (vehicle) was administered to determine the PD-L1 expression level in M2 macrophages (CD11b^+CD206^+).

[5] = tested on: mouse leukemia cell line (32Dp210); test: Size of subcutaneous 32Dp210 tumor mass in mice (Experimental Example 10); format: in vivo, mice (C3H/HEJ); details: 32Dp210 subcutaneous, 10 mg/kg orally once daily, 7 days, n=2, listed as PAI-1 inhibitor
Description: Specifically, 5×10^5 cells of a mouse leukemia cell line (32Dp210) were transplanted subcutaneously in mice (C3H/HEJ), and one week later, engraftment of more than 5 mm of a tumor mass in the major axis was confirmed. Subsequently, the PAI-1 inhibitor was orally administered once daily at 10 mg/kg for a total of 7 days. On the next day of the final administration, the size of the tumor mass ([…]) was measured. As a comparative control experiment, the size of the tumor mass was measured in the same manner in terms of a mouse group to which only physiological saline (vehicle) was orally administered instead of the PAI-1 inhibitor.

[6] = tested on: mouse colorectal cancer cell line (MC38); test: Size of subcutaneous MC38 tumor mass in mice (Experimental Example 11); format: in vivo, mice (C57BL6); details: PAI-1 inhibitor 10 mg/kg orally daily 14 days, anti-PD1 antibody 15 μg i.p. every 3 days, 3 times, 14 and 21 days
Source text: Mice (C57BL6) were divided into 1) an untreated group (vehicle) (n=15), 2) a single-administration group of anti-PD1 antibody (anti-PD-1 Ab), 3) a single-administration group of PAI-1 inhibitor (PAI-1 inhibitor), and 4) a combination group of anti-PD1 antibody and PAI-1 inhibitor (anti-PD-1 Ab+PAI-1 inhibitor) (n=18 for 2) to 4)). Then, 5×10^5 cells of the mouse colorectal cancer cell line (MC38) were transplanted subcutaneously into each mouse. One week after transplantation, engraftment of more than 5 mm of a tumor mass in the major axis was confirmed. Subsequently, the PAI-1 inhibitor (10 mg/kg) was orally administered once daily to groups 3) and 4) above for a total of 14 consecutive days. For groups 2) and 4), 15 μg of anti-PD1 antibody was intraperitoneally administered every 3 days (3 times in total) from the same day as the administration day of the PAI-1 inhibitor. For the untreated group, physiological saline was orally administered. The size of the tumor mass was measured 2 weeks (14 days) and 3 weeks (21 days) after the transplantation (0 days).

[7] = tested on: mouse colorectal cancer cell line (MC38); test: MC38 tumor mass in immunodeficient and wild-type mice (Experimental Example 12); format: in vivo; details: 10 mg/kg orally once daily, 14 days, listed as PAI-1 inhibitor
Description: To confirm this point, the following experiment was performed. Specifically, 5×10^5 cells of a mouse colorectal cancer cell line (MC38) were subcutaneously transplanted into immunodeficient mice (Rag2/IL-2R-KO) and wild-type mice (WT, for control). The immunodeficient mice lacked the RAG2 gene and the IL-2 receptor γ chain gene, and immune cells (T cells, B cells, NK cells) were not congenitally present in the body. One week later, engraftment of more than 5 mm of a tumor mass in the major axis was confirmed. Subsequently, the PAI-1 inhibitor (10 mg/kg) or physiological saline (vehicle) was orally administered to each mouse once daily for a total of 14 consecutive days.

O=C(Nc1ccc(Cl)cc1C(=O)[O-])c1cccc(-c2cccc3cccnc23)c1.[Na+] [Example 68, 5-chloro-2-(((3-(quinolin-8-yl)phenyl)carbonyl)amino)sodium benzoate]
PD-L1 expression induction by rPAI-1 [1]: completely inhibited the induction; also recorded: the same results as those of the leukemia cells
increase in PD-L1 mRNA expression by rPAI-1 [2]: inhibited the induction of the expression; also recorded: suppressed
PD-L1 expression level in leukemia cells [3]: reduced PD-L1 expression level; also recorded: lower PD-L1 expression level
PD-L1 expression level in M2 macrophages [4]: reduction in the PD-L1 expression level
size of the tumor mass [5]: tumor mass disappearance; also recorded: loss of tumor mass
size of the tumor mass [6]: significantly regressed; also recorded: tumor regression
tumor regression effect ([7]; immunodeficient mice (Rag2/IL-2R-KO)): no such an effect was observed; also recorded: not observed
tumor regression effect ([7]; wild-type mice (WT), 10 mg/kg): achieved a tumor regression effect; also recorded: observed
